Values joined by “and” are separate entries in the source; they are usually repeats but may differ in a detail not shown here. Identical values can stand only once.
Assays:
in vitro [1] = settings: human, hela cells, % viability
HeLa = settings: bulk resorufin, single well, 28.5 h, 10 µM, Bulk resorufin fluorescence
in vitro [2] = test: in vitro; parameters: Viability of infected HeLa host cells, resazurin conversion, bulk resorufin fluorescence relative to DMSO; settings: human, hela cells; bulk resorufin, mean of 2
[3] = system: T1, CTL2-GFP (C. trachomatis L2/434/Bu, GFP-expressing); test: microbe, parasite or virus in culture; parameters: Intracellular C. trachomatis growth in HeLa cells, bulk GFP fluorescence relative to DMSO; settings: Chlamydia trachomatis, HeLa, 28.5 h; bulk GFP, mean of 2; read-out: % of control remaining
T1 construct: L2/434/Bu, GFP-expressing
Method: MICs were calculated as described above.

[4] = system: T2, C. trachomatis L2/434/Bu expressing GFP (CTL2-GFP); test: microbe, parasite or virus in culture; parameters: C. trachomatis total inclusion area by high-content imaging, normalised to DMSO; settings: Chlamydia trachomatis, HeLa, 28.5 h; total inclusion area; read-out: % of control remaining
T2 construct: L2/434/Bu GFP intracellular growth in HeLa cells
In short: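 First, bulk GFP and resorufin signals were measured in compound-treated infected cultures. Cells were next fixed and stained with Hoechst. Finally, high-content imaging quantified chlamydial inclusions (area, number) and host nuclei, and MICs were calculated.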

| SMILES | viability at 28.5 h, 10 µM (in vitro [1]) | % viability (HeLa) | other results |
| --- | --- | --- | --- |
| Nc1nc(=O)c2cnc3ccc(Cl)cc3c2s1 [CBK288175] | 84.6% | 79.6% |  |
| C[C@@H]1CN2CCCC2CN1Cc1ccc(Br)o1 (stereo partly drawn) [CBK285410] | 99.7% | 101% |  |
| C[C@H]1CN2C[C@H](O)CC2CN1Cc1ccc(-c2ccccc2Cl)o1 (stereo partly drawn) [CBK285418] |  | 109% and 85.9% |  |
| O=C(CN1C(=O)[C@H]2CCCN2C(=O)c2ccccc21)Nc1ccccc1-c1ccccc1 [CBK286321] | 93.9% | 94.1% |  |
| O=C(O)CCCC(=O)N1CCN(Cc2ccc3c(c2)OCO3)CC1 [CBK074752] | 99.3% | 80.8% |  |
| COC(=O)Cn1nnc(-c2ccc(C)cc2)n1 [CBK068195] |  | 123% and 93.2% |  |
| C[C@H](Cn1nc2c(cc1=O)CCCCC2)NC(=O)c1ccco1 [CBK284544] | 84.9% | 88.3% |  |
| C[C@@H]1CN2CCCC2CN1CC1CC=CCC1 (stereo partly drawn) [CBK285441] | 99.1% | 99.9% |  |
| O=C(NC1CCCCC1)[C@H]1C=CCN1C(=O)c1ccc(F)cc1 [CBK282324] | 93.9% | 86.4% |  |
| COc1ccc(Nc2nccc(-c3cccnc3)n2)cc1 [CBK288073] |  | 70.2% and 104% |  |
| CSc1ccc(CN2CCN(Cc3ccc(Br)cc3)CC2)cc1 [CBK027856] |  | 96.4% | viability at 28.5 h, 10 µM (in vitro [1]; bulk resorufin, single well): 79.2% |
| O=C(CN1C(=O)[C@@H]2CCCN2C(=O)c2ccccc21)NCCc1ccccc1 [CBK286402] | 87.1% | 90% |  |
| CC(=O)c1sc(NC(=O)c2ccc(Cl)cc2)nc1C [CBK087686] | 86.7% | 88.4% |  |
| C[C@@H]1CN2CCCC2CN1Cc1cccc2cccnc12 (stereo partly drawn) [CBK284551] | 82.4% | 87.8% |  |
| c1ccc(-c2csc3ncnc(NCc4ccco4)c23)cc1 [CBK017506] | 91.1% | 84.6% |  |
| O=c1cc(O)c2ccccc2n1Cc1ccccc1 [CBK218877] |  | 107% and 84.4% |  |
| C[C@H](Cn1c(=O)oc2ccccc21)NC(=O)CC1c2ccccc2Oc2ccccc21 [CBK286201] | 90.1% | 96.8% |  |
| O=C1NCCN1CCNS(=O)(=O)c1csc2ccccc12 [CBK062602] |  | 117% and 90% |  |
| O=C(O)c1ccc(CN(c2ccccc2)S(=O)(=O)c2ccccc2)cc1 [CBK262406] | 93.3% | 82.8% |  |
| O=C(c1cnc2[nH][nH]c(=O)c2c1)c1ccccc1O [CBK288082] | 90.5% | 110% |  |
| O=C(O)CC1C(=O)NC(=O)N1CCc1ccccc1 (stereo not drawn) [CBK287254] |  | 111% and 85.3% |  |
| O=C(c1cccc(C(F)(F)F)c1)N1CCCC2(CCN(C(=O)c3ccoc3)C2)C1 (stereo not drawn) [CBK131616] |  | 116% and 88% |  |
| COc1cc2c(cc1OC)CN(C(=O)c1ccc3occc3c1)CC2 [CBK122746] |  | 66.2% and 36.8% |  |
| CC(NC(=O)N(Cc1ccccc1C(F)(F)F)CC(C)(C)CN)c1ccccc1 (stereo not drawn) [CBK026834C] |  | 118% and 97.8% |  |
| CC(C)C(=O)Nc1cc2cccnc2c(-c2cccc(C(F)(F)F)c2)n1 [CBK081266] |  | 125% and 100% |  |
| Cn1cc(C(=O)N2CCc3[nH]c4ccccc4c3C2)cn1 [CBK281875] |  | 104% and 83.7% |  |
| O=C(Nc1cc(-c2ccncc2)c[nH]c1=O)c1ccc(Cl)c(Cl)c1 [CBK115868] |  | 94.1% and 119% |  |

| SMILES | viability at 28.5 h, 10 µM (in vitro [1]) | % viability (HeLa) | other results |
| --- | --- | --- | --- |
| O=C1CNC(=O)C2(C/C=C/C[C@H]3COCC[C@H]3N1)CCNCC2 [CBK292151] |  | 82.1% and 104% |  |
| c1ccc(CN2CCC(Oc3cncc(OCCN4CCOCC4)n3)C2)cc1 (stereo not drawn) [CBK084478] |  | 107% and 84% |  |
| Cn1cc(C(NC(=O)c2nc(N)nc3c2CCCC3)[C@H]2C[C@@H](O)C2)cn1 (stereo partly drawn) [CBK307535] |  | 92.2% and 114% |  |
| CC(Oc1ccccc1)C(=O)Nc1ccccc1C(=O)O (stereo not drawn) [CBK262854] |  | 109% and 87% |  |
| CC[C@@H](Cn1nc(-c2cccs2)ccc1=O)NC(=O)C1CC1 [CBK282309] |  | 80.2% and 102% |  |
| CNc1cc(NS(=O)(=O)c2ccc(N)cc2)nc(NC)n1 [CBK011865] |  | 93% |  |
| O=C(Nc1cccnc1)c1cnc2cc(C(F)(F)F)ccc2c1O [CBK107474T] |  | 88% |  |
| CCOC(=O)c1cnc2c(Cl)cccc2c1NCCN1CCOCC1 [CBK263919] |  | 88.1% and 109% |  |
| C=CCNC(=O)[C@H]1C=CCN1C(=O)Nc1ccc(F)cc1 [CBK282318] |  | 82.7% and 110% |  |
| O=C(CC1SC(NC2CC3C=CC2C3)=NC1=O)Nc1ccccc1Cl (stereo not drawn) [CBK005795] |  | 109% and 72.5% |  |
| O=C(CSc1nc(O)c(Cc2ccccc2)c(=O)[nH]1)Nc1ccc([N+](=O)[O-])cc1 [CBK265887] |  | 88% and 113% |  |
| Nc1cc2cccnc2c(-c2cc(F)cc(F)c2)n1 [CBK061908] |  | 80.4% and 85.8% and 103% |  |
| CC(C)[C@@H](N)Cn1nc(-c2ccc(F)c(F)c2)ccc1=O [CBK282429] |  | 83% and 112% |  |
| COc1ccc(-c2nc(SCc3ccccc3)[nH]c(=O)c2C#N)cc1 [CBK007169] |  | 107% and 84.8% |  |
| COc1ccc(CN2C(=O)[C@H]3CCCN3C(=O)c3ccccc32)cc1 [CBK282851] |  | 87.8% and 109% |  |
| Cc1ccc2sc(NC(=O)c3ccc(N4C(=O)CCC4=O)cc3)nc2c1C [CBK287587] |  | 84.7% and 106% |  |
| C[C@H]1CN2C[C@H](O)CC2CN1Cc1ccc(C(F)(F)F)cc1 (stereo partly drawn) [CBK285147] |  | 113% and 89.6% |  |
| CC(=O)c1c(C)nc(-c2ccc(Cl)c(Cl)c2)n1O [CBK288525] |  | 116% and 89.2% |  |
| COc1ccc(C(C)C)cc1-c1cnc2ncccc2c1N [CBK083686] |  | 108% and 81.3% |  |
| O=C(O)CCC(=O)Nc1ccc(Br)cn1 [CBK056920] |  | 89.9% and 110% |  |
| CCOC(=O)CN1CCC(Oc2nccnc2OCCN2C(=O)CCC2=O)CC1 [CBK084348] |  | 120% and 80% |  |
| Cc1onc(-c2ccccc2)c1CNC(=O)C1COc2ccccc2O1 (stereo not drawn) [CBK144086] |  | 104% and 80.3% |  |
| COc1cc(N)c2ncccc2c1 [CBK011972C] | 77.7% |  | viability at 28.5 h, 1 µM (in vitro [2]): 101%; viability at 28.5 h, 5 µM (in vitro [2]): 81.1%; viability at 28.5 h, 10 µM (in vitro [2]): 80%; activity at 1 µM [3]: 90.6%; activity at 5 µM [3]: 23.4%; activity at 10 µM [3]: 7.94%; activity at 1 µM [4]: 85%; activity at 5 µM [4]: 10.9%; activity at 10 µM [4]: 1.09% |
| COc1c(Br)cc2c(cc(C)n2-c2ccccc2)c1OCC(O)CNC(C)C (stereo not drawn) [CBK263516] | 93.8% |  | viability at 28.5 h, 1 µM (in vitro [2]): 99.6%; viability at 28.5 h, 5 µM (in vitro [2]): 83%; viability at 28.5 h, 10 µM (in vitro [2]): 91.3%; activity at 1 µM [3]: 6.43%; activity at 5 µM [3]: 9.2%; activity at 10 µM [3]: 7.41%; activity at 1 µM [4]: 1.64%; activity at 5 µM [4]: 0.762%; activity at 10 µM [4]: 0.887% |
| CN(C(=O)CC1SC(NCC2CCCCC2)=NC1=O)c1ccccc1 (stereo not drawn) [CBK067371] |  | 87.9% and 110% |  |
| C/C(Nc1ccc(S(=O)(=O)Nc2nccc(C)n2)cc1)=C1\C(=O)N(c2nc3ccccc3s2)N=C1C(F)(F)F [CBK263002] | 90.1% |  | viability at 28.5 h, 1 µM (in vitro [2]): 93.4%; viability at 28.5 h, 5 µM (in vitro [2]): 89.8%; viability at 28.5 h, 10 µM (in vitro [2]): 88.6%; activity at 1 µM [3]: 31.6%; activity at 5 µM [3]: 15.5%; activity at 10 µM [3]: 14.3%; activity at 1 µM [4]: 62.8%; activity at 5 µM [4]: 27.5%; activity at 10 µM [4]: 22.8% |
| O=C1C(NCCO)=C(Nc2cccc(Cl)c2)C(=O)c2ccccc21 [CBK264323] | 91.7% |  | viability at 28.5 h, 1 µM (in vitro [2]): 102%; viability at 28.5 h, 5 µM (in vitro [2]): 98.6%; viability at 28.5 h, 10 µM (in vitro [2]): 88.4%; activity at 1 µM [3]: 93%; activity at 5 µM [3]: 48.6%; activity at 10 µM [3]: 35.5%; activity at 1 µM [4]: 90.7%; activity at 5 µM [4]: 34.6%; activity at 10 µM [4]: 14.8% |
